Assay results: patent US8415340B2, “Triazine kinase inhibitors” (Bristol-Myers Squibb Company, priority 2007, dated 2013)

Columns and labels:
[1] = test system: IGF1R-Sal tumors; assay: IGF-1R Sal Tumor Model; format: in vivo; settings: orally, qd × 4 days, nude mice bearing IGF1R-Sal tumors
Description: P. IGF-1R Sal Tumor Model
A salivary gland adenocarcinoma that developed spontaneously in a transgenic mouse (MCI-19) was excised and cut into fragments of about 20 mg. Tumor fragments were implanted s.c. into the ventral thoracic region of a group of six female, athymic BALB/c nu/nu mice (Harley Sprague-Dawley, Indianapolis, Ind.), using a 13-gauge trocar. Once established, the salivary gland-derived tumor line was designated IGF1R-Sal and was propagated as a tumor xenograft in nude mice. Tumors were passaged every 2 weeks, at which time the tumor reached f500 to 1,000 mm3 in size. For treatment studies, nude micebearing IGF1R-Sal tumors of about 100 mm3 in size were sorted into groups of five for treatment with vehicle (80% polyethylene glycol 400 in water) alone or the test article. Compounds were administered either on a bid schedule (oral doses 8 hours apart) or on a once a day schedule orally (qd) for 4 consecutive days. Tumors were measured at the start and end of treatment. Activity was measured as % tumor growth inhibition (% TGI). The % TGI was determined using the following formula (Ct−Tt)/(Ct−Co) where Ct is defined as the median tumor size of the control group at the end of treatment, Co is defined as the median tumor size of the control group at the start of treatment, and Tt is defined as the median tumor size of the treated group at the end of treatment.

[2] = biological target: IGF1-receptor (Homo sapiens, UniProt P08069); assay: IGF1-Receptor Tyrosine Kinase Assay; format: biochemical; settings: in vitro kinase; ATP 25 μM; read-out: IGF1R kinase IC50
Description: D. IGF1-Receptor Tyrosine Kinase Assay
The assays were performed in U-bottom 384-well plates. The final assay volume was 30 μl prepared from 15 μl additions of enzyme and substrates (fluoresceinated IGF1R substrate peptide and ATP) and test compounds in assay buffer (100 mM HEPES pH 7.4, 10 mM MnCl2, 0.015% Brij35 and 4 mM DTT). The reaction was initiated by the combination of IGF1-receptor with substrates and test compounds. The reaction was incubated at room temperature for 60 min. and terminated by adding 30 μl of 35 mM EDTA to each sample. The reaction mixture was analyzed on the Caliper LabChip 3000 by electrophoretic separation of the fluorescent substrate and phosphorylated product. Inhibition data were calculated by comparison to no enzyme control reactions for 100% inhibition and vehicle-only reactions for 0% inhibition. The final concentration of reagents in the assays is ATP, 25 μM; FL-peptide, 1.5 μM; IGF1-Receptor, 14 nM; and DMSO, 1.6%. Dose response curves were generated to determine the concentration required inhibiting 50% of kinase activity (IC50). Compounds were dissolved at 10 mM in dimethylsulfoxide (DMSO) and evaluated at eleven concentrations, each in duplicate. IC50 values were derived by non-linear regression analysis.

IGF1-receptor, sequence (P08069 31-1367): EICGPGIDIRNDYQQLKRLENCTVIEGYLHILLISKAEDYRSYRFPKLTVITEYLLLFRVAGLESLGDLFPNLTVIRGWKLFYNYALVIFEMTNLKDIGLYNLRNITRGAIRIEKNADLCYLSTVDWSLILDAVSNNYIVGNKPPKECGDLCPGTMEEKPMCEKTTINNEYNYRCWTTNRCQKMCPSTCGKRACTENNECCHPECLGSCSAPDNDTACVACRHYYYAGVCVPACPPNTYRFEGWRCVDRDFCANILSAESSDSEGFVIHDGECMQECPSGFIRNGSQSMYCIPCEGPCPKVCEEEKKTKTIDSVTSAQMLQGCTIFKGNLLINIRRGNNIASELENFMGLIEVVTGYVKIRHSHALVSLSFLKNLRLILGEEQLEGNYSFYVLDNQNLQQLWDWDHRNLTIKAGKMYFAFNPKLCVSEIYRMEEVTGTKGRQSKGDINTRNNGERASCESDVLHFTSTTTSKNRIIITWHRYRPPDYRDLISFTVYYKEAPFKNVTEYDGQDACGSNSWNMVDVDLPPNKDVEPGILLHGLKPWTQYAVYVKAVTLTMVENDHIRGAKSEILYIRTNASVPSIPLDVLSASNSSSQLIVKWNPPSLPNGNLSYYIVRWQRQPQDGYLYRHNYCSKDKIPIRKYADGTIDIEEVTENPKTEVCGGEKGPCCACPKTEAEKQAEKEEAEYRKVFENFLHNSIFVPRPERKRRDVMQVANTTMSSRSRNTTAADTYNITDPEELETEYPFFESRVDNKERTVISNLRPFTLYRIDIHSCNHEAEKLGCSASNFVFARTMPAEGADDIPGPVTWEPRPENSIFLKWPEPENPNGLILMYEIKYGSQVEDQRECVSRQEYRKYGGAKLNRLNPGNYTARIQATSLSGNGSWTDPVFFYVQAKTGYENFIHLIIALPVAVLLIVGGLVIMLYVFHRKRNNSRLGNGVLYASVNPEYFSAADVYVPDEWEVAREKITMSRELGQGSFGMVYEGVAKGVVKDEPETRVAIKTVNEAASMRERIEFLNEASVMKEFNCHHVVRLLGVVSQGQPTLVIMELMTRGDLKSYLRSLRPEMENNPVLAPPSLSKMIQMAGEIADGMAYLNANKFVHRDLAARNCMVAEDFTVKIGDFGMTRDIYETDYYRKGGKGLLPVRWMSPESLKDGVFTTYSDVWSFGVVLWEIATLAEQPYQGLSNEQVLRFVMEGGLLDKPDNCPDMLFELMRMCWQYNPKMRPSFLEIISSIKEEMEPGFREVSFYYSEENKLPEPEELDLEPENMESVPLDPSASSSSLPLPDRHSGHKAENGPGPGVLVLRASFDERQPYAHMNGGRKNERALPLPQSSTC

SMILES	IC50 [2] [nM]	other results
O=C(Nc1cnccn1)[C@@H]1C[C@H](O)CN1c1nc(Nc2cc(C3CC3)n[nH]2)nc(N2CCOCC2)n1 [Example 85, (2S,4S)-1-(4-(3-Cyclopropyl-1H-pyrazol-5-ylamino)-6-morpholino-1,3,5-triazin-2-yl)-4-hydroxy-N-(pyrazin-2-yl)pyrrolidine-2-carboxamide]		% TGI (6.25 mpk) ([1]; 6.25 mpk): 49%
CN1CCN(c2nc(Nc3cc(C4CC4)n[nH]3)nc(N3CC(F)(F)C[C@H]3C(=O)Nc3cnccn3)n2)CC1 [Example 117, (S)-1-(4-(3-Cyclopropyl-1H-pyrazol-5-ylamino)-6-(4-methylpiperazin-1-yl)-1,3,5-triazin-2-yl)-4,4-difluoro-N-(pyrazin-2-yl)pyrrolidine-2-carboxamide]	7	
COCCN1CCN(c2nc(Nc3cc(C4CC4)n[nH]3)nc(N3C[C@H](F)C[C@H]3C(=O)Nc3ncns3)n2)CC1 [Example 84, (2S,4R)-1-(4-(3-Cyclopropyl-1H-pyrazol-5-ylamino)-6-(4-(2-methoxyethyl)piperazin-1-yl)-1,3,5-triazin-2-yl)-4-fluoro-N-(1,2,4-thiadiazol-5-yl)pyrrolidine-2-carboxamide]		% TGI (50 mpk) ([1]; 50 mpk): 25%
O=C(Nc1cnccn1)[C@@H]1C[C@@H](F)CN1c1nc(Nc2cc(C3CC3)n[nH]2)nc(N2CCOCC2)n1 [Example 65, (2S,4R)-1-(4-(3-Cyclopropyl-1H-pyrazol-5-ylamino)-6-morpholino-1,3,5-triazin-2-yl)-4-fluoro-N-(pyrazin-2-yl)pyrrolidine-2-carboxamide]		% TGI (3.13 mpk) ([1]; 3.13 mpk): 80%
O=C(Nc1ncns1)[C@@H]1C[C@@H](F)CN1c1nc(Nc2cc(C3CC3)n[nH]2)nc(N2CCOCC2)n1 [Example 82, (2S,4R)-1-(4-(3-Cyclopropyl-1H-pyrazol-5-ylamino)-6-morpholino-1,3,5-triazin-2-yl)-4-fluoro-N-(1,2,4-thiadiazol-5-yl)pyrrolidine-2-carboxamide]	7	
CO[C@H]1C[C@@H](C(=O)N[C@@H]2CCCN(C)C2)N(c2nc(Nc3cc(C4CC4)[nH]n3)nc(N3CCOCC3)n2)C1 [Example 113, (2S,4S)-1-(4-(5-Cyclopropyl-1H-pyrazol-3-ylamino)-6-morpholino-1,3,5-triazin-2-yl)-4-methoxy-N—((R)-1-methylpiperidin-3-yl)pyrrolidine-2-carboxamide]	7	
CN1CCN(c2nc(Nc3cc(C4CC4)n[nH]3)nc(N3[C@H](C(=O)Nc4cnccn4)C[C@@H]4C[C@@H]43)n2)CC1 [Example 122, (1S,3S,5S)-2-(4-(3-Cyclopropyl-1H-pyrazol-5-ylamino)-6-(4-methylpiperazin-1-yl)-1,3,5-triazin-2-yl)-N-(pyrazin-2-yl)-2-azabicyclo[3.1.0]hexane-3-carboxamide]	7	
Cc1cnc(NC(=O)[C@]2(C)C[C@H](O)CN2c2nc(Nc3cc(C4CC4)[nH]n3)nc(N3CCOCC3)n2)s1 [Example 105, (2S,4S)-1-(4-(5-Cyclopropyl-1H-pyrazol-3-ylamino)-6-morpholino-1,3,5-triazin-2-yl)-4-hydroxy-2-methyl-N-(5-methylthiazol-2-yl)pyrrolidine-2-carboxamide]	89	
O=C(N[C@H]1CCCN(c2nc(Nc3cc(C4CC4)n[nH]3)nc(N3C[C@H](F)C[C@H]3C(=O)Nc3cnccn3)n2)C1)C1CC1 [Example 72, (2S,4R)-1-(4-((S)-3-(Cyclopropanecarboxamido)piperidin-1-yl)-6-(3-cyclopropyl-1H-pyrazol-5-ylamino)-1,3,5-triazin-2-yl)-4-fluoro-N-(pyrazin-2-yl)pyrrolidine-2-carboxamide]	56	
COCCN1CCN(c2nc(Nc3cc(C4CC4)n[nH]3)nc(N3C[C@@H](OC)C[C@H]3C(=O)Nc3cnccn3)n2)CC1 [Example 25, (2S,4S)-1-(4-(3-Cyclopropyl-1H-pyrazol-5-ylamino)-6-(4-(2-methoxyethyl)piperazin-1-yl)-1,3,5-triazin-2-yl)-4-methoxy-N-(pyrazin-2-yl)pyrrolidine-2-carboxamide]	3	
COCCN1CCN(c2nc(Nc3cc(C4CC4)[nH]n3)nc(N3C[C@@H](O)C[C@@]3(C)C(=O)Nc3nccs3)n2)CC1 [Example 103, (2S,4S)-1-(4-(5-Cyclopropyl-1H-pyrazol-3-ylamino)-6-(4-(2-methoxyethyl)piperazin-1-yl)-1,3,5-triazin-2-yl)-4-hydroxy-2-methyl-N-(thiazol-2-yl)pyrrolidine-2-carboxamide]	108	
CN1CCN(c2nc(Nc3cc(C4CC4)[nH]n3)nc(N3C[C@@H](O)C[C@@]3(C)C(=O)Nc3nccs3)n2)CC1 [Example 102, (2S,4S)-1-(4-(5-Cyclopropyl-1H-pyrazol-3-ylamino)-6-(4-methylpiperazin-1-yl)-1,3,5-triazin-2-yl)-4-hydroxy-2-methyl-N-(thiazol-2-yl)pyrrolidine-2-carboxamide]	44	
COc1nc(Nc2cc(C3CC3)[nH]n2)nc(N2C[C@@H](OC)C[C@H]2C(=O)Nc2cnccn2)n1 [Example 20, (2S,4S)-1-(4-(5-Cyclopropyl-1H-pyrazol-3-ylamino)-6-methoxy-1,3,5-triazin-2-yl)-4-methoxy-N-(pyrazin-2-yl)pyrrolidine-2-carboxamide]	7	
CO[C@H]1C[C@@H](C(=O)Nc2cnccn2)N(c2nc(Nc3cc(C4CC4)[nH]n3)nc(N3CCSCC3)n2)C1 [Example 34, (2S,4S)-1-(4-(5-Cyclopropyl-1H-pyrazol-3-ylamino)-6-thiomorpholino-1,3,5-triazin-2-yl)-4-methoxy-N-(pyrazin-2-yl)pyrrolidine-2-carboxamide]	3	
CN1CC2CC1CN2c1nc(Nc2cc(C3CC3)[nH]n2)nc(N2C[C@@H](O)C[C@@]2(C)C(=O)Nc2nccs2)n1 (stereo partly drawn) [Example 104, (2S,4S)-1-(4-(5-Cyclopropyl-1H-pyrazol-3-ylamino)-6-(5-methyl-2,5-diazabicyclo[2.2.1]heptan-2-yl)-1,3,5-triazin-2-yl)-4-hydroxy-2-methyl-N-(thiazol-2-yl)pyrrolidine-2-carboxamide]	43	
O=C(Nc1cnccn1)[C@@H]1CC(F)(F)CN1c1nc(Nc2cc(C3CC3)n[nH]2)nc(N2CCN(CCO)CC2)n1 [Example 119, (S)-1-(4-(3-Cyclopropyl-1H-pyrazol-5-ylamino)-6-(4-(2-hydroxyethyl)piperazin-1-yl)-1,3,5-triazin-2-yl)-4,4-difluoro-N-(pyrazin-2-yl)pyrrolidine-2-carboxamide]	3	
CO[C@H]1C[C@@H](C(=O)Nc2cnccn2)N(c2nc(Nc3cc(C4CC4)[nH]n3)nc(-n3nc(C4CC4)cc3N)n2)C1 [Example 58, (2S,4S)-1-(4-(5-Amino-3-cyclopropyl-1H-pyrazol-1-yl)-6-(5-cyclopropyl-1H-pyrazol-3-ylamino)-1,3,5-triazin-2-yl)-4-methoxy-N-(pyrazin-2-yl)pyrrolidine-2-carboxamide]	95	
CO[C@H]1C[C@@H](C(=O)Nc2ccc(F)nc2)N(c2nc(Nc3cc(C4CC4)n[nH]3)nc(N3CCOCC3)n2)C1 [Example 62, (2S,4S)-1-(4-(3-Cyclopropyl-1H-pyrazol-5-ylamino)-6-morpholino-1,3,5-triazin-2-yl)-N-(6-fluoropyridin-3-yl)-4-methoxypyrrolidine-2-carboxamide]	2	
COCCN1CCN(c2nc(Nc3cc(C4CC4)n[nH]3)nc(N3C[C@@H](O)C[C@H]3C(=O)Nc3cnccn3)n2)CC1 [Example 87, (2S,4S)-1-(4-(3-Cyclopropyl-1H-pyrazol-5-ylamino)-6-(4-(2-methoxyethyl)piperazin-1-yl)-1,3,5-triazin-2-yl)-4-hydroxy-N-(pyrazin-2-yl)pyrrolidine-2-carboxamide]	2	
CO[C@H]1C[C@@H](C(=O)Nc2cnccn2)N(c2nc(Nc3cc(C4CC4)n[nH]3)nc(N3CCN(S(C)(=O)=O)CC3)n2)C1 [Example 46, (2S,4S)-1-(4-(3-Cyclopropyl-1H-pyrazol-5-ylamino)-6-(4-(methylsulfonyl)piperazin-1-yl)-1,3,5-triazin-2-yl)-4-methoxy-N-(pyrazin-2-yl)pyrrolidine-2-carboxamide]	3	
CO[C@H]1C[C@@H](C(=O)Nc2cnccn2)N(c2nc(NCCN(C)C)nc(Nc3cc(C4CC4)n[nH]3)n2)C1 [Example 27, (2S,4S)-1-(4-(3-Cyclopropyl-1H-pyrazol-5-ylamino)-6-(2-(dimethylamino)ethylamino)-1,3,5-triazin-2-yl)-4-methoxy-N-(pyrazin-2-yl)pyrrolidine-2-carboxamide]	7	
